This assay has as its system P388 leukemia ip, CD2F1 mice, survival T/C. The assay is described as follows: NCI In Vivo Anticancer Drug Screen. Data for tumor model P388 Leukemia (intraperitoneal) in CD2F1 (CDF1) mice. Conditions: endpoint: median survival time, higher = longer survival. Summed up: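 Mice carrying the transplanted tumor received test compound or vehicle. Survival was recorded in each group, and the value is the treated-group measurement divided by that of the vehicle-treated control group.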

Where [1] appears, read: dose: 50.0 mg/kg/injection, schedule: Q01DX005 (ip), vehicle: Klucel (hydroxypropylcellulose) (HPC).
The mark [2] stands for this setting: dose: 100.0 mg/kg/injection, schedule: Q01DX005 (ip), vehicle: Klucel (hydroxypropylcellulose) (HPC).
[3] abbreviates: dose: 200.0 mg/kg/injection, schedule: Q01DX005 (ip), vehicle: Klucel (hydroxypropylcellulose) (HPC).
The mark [4] stands for this setting: dose: 60.0 mg/kg/injection, schedule: Q01DX005 (ip), vehicle: saline with Tween-80.
Setting [5] is: dose: 120.0 mg/kg/injection, schedule: Q01DX005 (ip), vehicle: saline with Tween-80.
[6] abbreviates: dose: 240.0 mg/kg/injection, schedule: Q01DX005 (ip), vehicle: saline with Tween-80.
Where [7] appears, read: dose: 12.5 mg/kg/injection, schedule: Q01DX009 (ip), vehicle: saline.
The mark [8] stands for this setting: dose: 25.0 mg/kg/injection, schedule: Q01DX009 (ip), vehicle: saline.
The mark [9] stands for this setting: dose: 50.0 mg/kg/injection, schedule: Q01DX009 (ip), vehicle: saline.
[10] abbreviates: dose: 60.0 mg/kg/injection, schedule: Q01DX005 (ip), vehicle: Klucel + Tween-80.
[11] abbreviates: dose: 120.0 mg/kg/injection, schedule: Q01DX005 (ip), vehicle: Klucel + Tween-80.
[12] abbreviates: dose: 240.0 mg/kg/injection, schedule: Q01DX005 (ip), vehicle: Klucel + Tween-80.
The mark [13] stands for this setting: dose: 50.0 mg/kg/injection, schedule: Q01DX005 (ip), vehicle: saline.
Where [14] appears, read: dose: 100.0 mg/kg/injection, schedule: Q01DX005 (ip), vehicle: saline.
[15] abbreviates: dose: 15.0 mg/kg/injection, schedule: Q01DX005 (ip), vehicle: saline with Tween-80.
[16] abbreviates: dose: 30.0 mg/kg/injection, schedule: Q01DX005 (ip), vehicle: saline with Tween-80.
The mark [17] stands for this setting: dose: 50.0 mg/kg/injection, schedule: Q01DX009 (ip), vehicle: Klucel (hydroxypropylcellulose) (HPC).
[18] abbreviates: dose: 100.0 mg/kg/injection, schedule: Q01DX009 (ip), vehicle: Klucel (hydroxypropylcellulose) (HPC).

The values that follow come from PubChem BioAssay AID330 (DTP/NCI, 2004).

Values joined by “and” are separate entries in the source; they are usually repeats but may differ in a detail not shown here. Equal entries are not always repeated. Toxic doses and inconclusive results are not listed.

`CCCCCCC1NC1Cc1ccccc1` (configuration not stated): the T/C by setting is: (dose: 4.5 mg/kg/injection, schedule: Q01DX009 (ip), vehicle: saline with Tween-80) 115 % of control; (dose: 9.0 mg/kg/injection, schedule: Q01DX009 (ip), vehicle: saline with Tween-80) 111 % of control; (dose: 18.0 mg/kg/injection, schedule: Q01DX009 (ip), vehicle: saline with Tween-80) 110 % of control.

In the case of `Cc1c(C)c(C)c(S(=O)(=O)NCCCNS(=O)(=O)c2c(C)c(C)c(C)c(C)c2C)c(C)c1C`, the T/C was 98 % of control under setting [1], 94 % of control under setting [2] and 89 % of control under setting [3].

Turning to `Cc1nc2ccccc2c(=O)n1/N=C\c1ccc2c(c1)CCC2`, the T/C by setting is: (dose: 60.0 mg/kg/injection, schedule: Q01DX005 (ip), vehicle: Klucel (hydroxypropylcellulose) (HPC)) 97 % of control; (dose: 120.0 mg/kg/injection, schedule: Q01DX005 (ip), vehicle: Klucel (hydroxypropylcellulose) (HPC)) 104 % of control; (dose: 240.0 mg/kg/injection, schedule: Q01DX005 (ip), vehicle: Klucel (hydroxypropylcellulose) (HPC)) 95 % of control.

With `CCOC(=O)N1c2ccccc2SC1C#N` (configuration not stated), the T/C reads like this: under setting [4], 97 % of control; under setting [5], 92 % of control; under setting [6], 105 % of control.

With `CNC(=O)OCc1c(COC(=O)NC)c(C)n(-c2ccc(Br)cc2)c1C`, the T/C is 152 % of control and 154 % of control under setting [7]; 157 % of control under setting [8]; 89 % of control under setting [9].

As to `CN1C(=S)C(=N)OC1c1ccc(Cl)cc1Cl` (configuration not stated), the T/C is 102 % of control under setting [10], 94 % of control under setting [11] and 96 % of control under setting [12].

`COC(=O)c1nc2c(c(=O)n(C)c(=O)n2C)n1C`: the T/C is 94 % of control under setting [4], 96 % of control under setting [5] and 89 % of control under setting [6].

On to `CN(C)CCN(Cc1ccc(Cl)s1)c1ccccn1`, for which the T/C is 101 % of control under setting [13] and 99 % of control under setting [14].

In the case of `CCN(CC)CCSCCCN=c1c2ccc(Cl)cc2n(O)c2ccc(OC)nc12`, the T/C (dose: 50.0 mg/kg/injection, schedule: Q01DX009 (ip), vehicle: saline + alcohol) is 115 % of control and the T/C (dose: 100.0 mg/kg/injection, schedule: Q01DX009 (ip), vehicle: saline + alcohol) was 112 % of control.

Regarding `O=[N+]([O-])c1ccccc1N(CCO)CCO`, the T/C runs as follows: under setting [4], 96 % of control; under setting [5], 99 % of control; under setting [6], 98 % of control.

As to `C1=[N+]2CCCC2Cc2ccc3ccccc3c21` (configuration not stated), the T/C by setting is: (dose: 12.5 mg/kg/injection, schedule: Q04DX003 (ip), vehicle: saline) 100 % of control; (dose: 25.0 mg/kg/injection, schedule: Q04DX003 (ip), vehicle: saline) 103 % of control; (dose: 50.0 mg/kg/injection, schedule: Q04DX003 (ip), vehicle: saline) 100 % of control.

In the case of `CCCCOc1ccc(/C=N/NC(=O)CNC(=O)Nc2cccc([N+](=O)[O-])c2)cc1`, the T/C by setting is: under setting [15], 98 % of control; under setting [16], 89 % of control; under setting [4], 86 % of control and 87 % of control; under setting [6], 91 % of control.

With `CC(=O)OCc1c(-c2ccccc2)sc2ccccc2c1=O`, the T/C runs as follows: under setting [1], 96 % of control; under setting [2], 102 % of control; under setting [3], 97 % of control.

As to `CCOC(=O)/C(C#N)=C/c1ccc(C)o1`, the T/C under setting [15] is 99 % of control; the T/C under setting [16] is 100 % of control; the T/C under setting [4] is 100 % of control and 101 % of control.

For `CCCCN=Cc1c(O)c(O)c(C(C)C)c2cc(C)c(-c3c(C)cc4c(C(C)C)c(O)c(O)c(C=NCCCC)c4c3O)c(O)c12`, the T/C reads like this: under setting [1], 99 % of control; under setting [2], 107 % of control; under setting [3], 114 % of control.

Regarding `CC(C)(C)C1NC(C(C)(C)C)N2C(C(C)(C)C)N12` (configuration not stated), the T/C (dose: 100.0 mg/kg/injection, schedule: Q01DX001 (ip), vehicle: Klucel (hydroxypropylcellulose) (HPC)) is 100 % of control; the T/C (dose: 200.0 mg/kg/injection, schedule: Q01DX001 (ip), vehicle: Klucel (hydroxypropylcellulose) (HPC)) was 90 % of control; the T/C (dose: 400.0 mg/kg/injection, schedule: Q01DX001 (ip), vehicle: Klucel (hydroxypropylcellulose) (HPC)) was 102 % of control.

Regarding `CN(c1ccccc1)S(=O)(=O)c1ccccc1`, the T/C (dose: 100.0 mg/kg/injection, schedule: Q01DX009 (ip), vehicle: saline with Tween-80) was 95 % of control; the T/C (dose: 200.0 mg/kg/injection, schedule: Q01DX009 (ip), vehicle: saline with Tween-80) was 95 % of control; the T/C (dose: 200.0 mg/kg/injection, schedule: Q04DX003 (ip), vehicle: saline with Tween-80) was 100 % of control; the T/C (dose: 400.0 mg/kg/injection, schedule: Q01DX009 (ip), vehicle: saline with Tween-80) was 100 % of control; the T/C (dose: 400.0 mg/kg/injection, schedule: Q04DX003 (ip), vehicle: saline with Tween-80) was 87 % of control.

In the case of `COc1ccc(-c2cc3cc(OC)c(OC)cc3c(-c3ccccc3)n2)cc1OC`, the T/C runs as follows: under setting [4], 98 % of control; under setting [5], 95 % of control; under setting [6], 90 % of control.

For the compound `CN(C)CCCCNc1ccc(NCCCCN(C)C)c2c1C(=O)c1c(O)ccc(O)c1C2=O`, the T/C under setting [7] is 100 % of control, the T/C under setting [8] was 108 % of control and the T/C under setting [9] is 106 % of control.

On to `COc1cc2c(cc1OC)C1c3cc(OC)c(OC)cc3CCN1CC2`, for which the T/C was 106 % of control (dose: 3.13 mg/kg/injection, schedule: Q01DX009 (ip), vehicle: water); 106 % of control (dose: 6.25 mg/kg/injection, schedule: Q01DX009 (ip), vehicle: water); 100 % of control (dose: 12.5 mg/kg/injection, schedule: Q01DX009 (ip), vehicle: water); 107 % of control (dose: 25.0 mg/kg/injection, schedule: Q01DX009 (ip), vehicle: water).

As to `c1cc(-c2cc(-c3cc(-c4ccncc4)n[nH]3)[nH]n2)ccn1`, the T/C was 91 % of control under setting [10], 100 % of control under setting [11] and 91 % of control under setting [12].

Regarding `CC1=CC(C/C(C)=C/COc2ccc3ccc(=O)oc3c2)OC1=O` (configuration not stated), the T/C is 87 % of control (dose: 12.5 mg/kg/injection, schedule: Q01DX005 (ip), vehicle: Klucel (hydroxypropylcellulose) (HPC)); 90 % of control (dose: 25.0 mg/kg/injection, schedule: Q01DX005 (ip), vehicle: Klucel (hydroxypropylcellulose) (HPC)); 97 % of control under setting [1].

Consider `CCOP(=O)(OCC)C(N)Cc1c[nH]c2ccccc12` (configuration not stated), for which the T/C runs as follows: under setting [13], 101 % of control; under setting [14], 104 % of control.

As for `CCCCN(C(C)=O)c1nc2ccccc2n1C`, the T/C reads like this: (dose: 100.0 mg/kg/injection, schedule: Q04DX003 (ip), vehicle: saline) 97 % of control; (dose: 200.0 mg/kg/injection, schedule: Q04DX003 (ip), vehicle: saline) 98 % of control; (dose: 400.0 mg/kg/injection, schedule: Q04DX003 (ip), vehicle: saline) 95 % of control.

For `C/C=C\C#C/C=C1/C=CC(=O)O1`, the T/C (dose: 12.5 mg/kg/injection, schedule: Q01DX009 (ip), vehicle: Klucel (hydroxypropylcellulose) (HPC)) is 105 % of control; the T/C (dose: 25.0 mg/kg/injection, schedule: Q01DX009 (ip), vehicle: Klucel (hydroxypropylcellulose) (HPC)) is 105 % of control; the T/C under setting [17] is 108 % of control; the T/C under setting [18] is 108 % of control.

Take `CCCCCCCCCCC(=O)C(=O)c1ccc(O)cc1O`: the T/C runs as follows: under setting [17], 111 % of control; under setting [18], 112 % of control; (dose: 200.0 mg/kg/injection, schedule: Q01DX009 (ip), vehicle: Klucel (hydroxypropylcellulose) (HPC)) 113 % of control.

Turning to `ClCC1=NC2CCCCC2N1` (configuration not stated), the T/C reads like this: (dose: 50.0 mg/kg/injection, schedule: Q01DX005 (ip), vehicle: saline with Tween-80) 102 % of control; (dose: 100.0 mg/kg/injection, schedule: Q01DX005 (ip), vehicle: saline with Tween-80) 98 % of control.
